Measured values: publication PMC3765824, “Trough colistin plasma level is an independent risk factor for nephrotoxicity: a prospective observational cohort study” (BMC Infectious Diseases, 2013)
Read-outs that look alike come from different tables or passages of the source. Bridge positions count the residues as written; N and C are the ends. Square brackets hold non-standard residues; d marks the D form. Peptide text beside a SMILES is read from it. * marks the point of attachment. X1 = CC[C@H](C)CCCCC(=O)*; Dab = NCC[C@H](N)C(=O)O

Key:
[1] = Colistin plasma concentrations at steady state (HPLC); assay type: in vivo, patients; settings: human; for Cmax: intravenous; for level at 72 h: iv
Protocol: Evaluation of the colistin concentration in plasma was performed after 3 days of treatment, when the colistin concentrations had reached steady state. The samples were immediately centrifuged (3000 g for 10 minutes) and the plasma was stored at −80°C until analysis. Colistin plasma trough concentrations (Cmin) were measured just before the next dose. Maximum plasma concentrations (Cmax) were taken 30 minutes after the end of the CMS infusion (1 h after the start of infusion).
Colistin concentrations in plasma were determined using a validated high-performance liquid chromatography (HPLC) method as described by Li et al., with minor modifications. After protein precipitation, the samples were centrifuged (14000 g, 5 min) and the supernatant transferred to solid phase extraction (SPE) C18 cartridges (Sep-Pak, Waters, Milford, MA, USA), in which derivation with 9-fluorenylmethyl chloroformate (FMOC-Cl) was performed. Elution of the fluorescence derivatives was performed with acetone mixed with acetonitrile and boric acid. Finally, 20 μl of the mixture was injected into the HPLC. The HPLC system was made up of Waters equipment that included a Waters 2475 multi-λ Fluorescence Detector, a Waters 1525 binary pump with column heater, a Waters degasser, and a Waters 717 autoinjector sampler. The stationary phase was a Waters SunFire column C18, 4.6 × […], 5 μm. The mobile phase was a mixture of acetonitrile, tetrahydrofuran and water delivered at an isocratic flux of 1 mL/min. The chromatogram run time was 20 minutes and the detector setting was excitation wavelength 260 nm and emission wavelength 315 nm. The concentrations of colistin were calculated by multiplying the obtained colistin sulfate plasma concentrations by 1163/1403 (1163 being the average molecular weight of colistin A and B, which are the greater part of the products, and 1403 the average molecular weight of colistin sulfate). The colistin plasma concentration in each patient was calculated as the sum of colistin A and B, the two main components. Calibration curves were linear in the range 0.1-8 mcg/ml and the accuracy quality control samples varied from 90–110 % of the nominal concentration for intraday and interday analysis, with a precision (CV%) of 10% or less. The limit of quantification was 0.1 mcg/ml and the limit of detection was 0.05 mcg/mL.

[2] = system: patients receiving intravenous colistin methanesulfonate sodium (CMS); experiment: Colistin-associated nephrotoxicity: AKI by RIFLE criteria during CMS treatment; assay type: in vivo; settings: for N° (%) of patients fulfilling criterion: ESKD (E) / N° (%) of patients fulfilling criterion: Failure (F) / N° (%) of patients fulfilling criterion: Injury (I) / N° (%) of patients fulfilling criterion: Loss (L) / N° (%) of patients fulfilling criterion: No injury / N° (%) of patients fulfilling criterion: Risk (R): RIFLE
Protocol: (§1) This prospective observational study was performed at a 400-bed acute-care university hospital in Barcelona, Spain. A pharmacy-generated alarm system was used to identify patients on CMS treatment for therapy of infections caused by MDR-GNB. From January 2010 to June 2011, patients (>18 years) were included if they had received colistin methanesulfonate sodium (CMS) for at least 4 days. Patients were excluded if they were receiving renal replacement therapy prior to the initiation of CMS.
CMS for injection was used and dosed in millions of international units (IU) throughout the study. The drug was administered intravenously in 100 mL normal saline over 30 minutes in the commercially available colistimethate formulation for injection (GES Genéricos Españoles ®), with each vial containing 80 mg CMS (equivalent to 1 million international units of CMS). Dose selection was based on the individual criteria of the responsible clinicians, who were not aware that this study was being performed. Although there were some dose adjustments based on baseline renal function, common colistin doses ranged from 1 to 3 million international units (IU) every 8 hours (3–9 million IU daily). Dose adjustments were made according to the package insert’s recommended dosing as follows: GFR ≥ 76 mL/min/1.73 m^2, 4–6 million IU daily in three doses; GFR 40 to 75 mL/min/1.73 m^2, 2–3 million IU daily in 2 doses; GFR 25 to 40 mL/min/1.73 m^2, 1.5-2 million IU daily divided in 1 or 2 doses and; GFR < 25 mL/min/1.73 m^2 , 0.6-1 million of IU daily every 36 hours.
Serum creatinine level and estimated glomerular filtration rate (GFR) were recorded at baseline, on day 7 and at the end of treatment (EOT). We chose these set points because blood tests are done routinely for all inpatients at least once a week and at the end of treatment. The abbreviated Modification of Diet in the Renal Disease Equation (MDRD-4) was used to calculate GFR. Chronic kidney disease (CKD) at baseline was considered if GFR was < 60 mL/min/1.73 m^2 for ≥ 3 months. Patients with increased creatinine (> 1.4 mg/dL) or GFR < 90 mL/min/1.73 m^2 at admission and no prior data regarding chronicity were considered as having acute renal failure due to any cause. The RIFLE criteria (risk, injury, failure, loss, and end-stage kidney disease), estimated with exclusion of the urinary output criterion, were used for detection and stratification of AKI [14] (Table 1). AKI during CMS treatment was defined as a 1.5-fold or more increase in serum creatinine and/or a decrease in the GFR of 25% or more. These criteria needed to be fulfilled for at least 2 consecutive determinations 24 hours apart, after ≥ 4 days of CMS therapy. Patients who developed AKI were followed up for a period of 30 days after the end of CMS treatment to evaluate the reversibility of this toxicity. Patients who died or had no data during this period were excluded from this analysis.
Multivariate analysis of risk factors for colistin nephrotoxicity was constructed by using logistic regression. Univariate analyses were performed separately for each of the risk factor variables to ascertain the odds ratio and 95% confidence interval (CI). All clinically important covariates and those with a P value < 0.2 in the univariate analyses were included in the multivariate analysis. Since Cmax and Cmin values were almost equal, only one of these variables was included in the model.
The ROC curve was used to identify a categorical breakpoint for Cmin that would better identify patients who develop acute kidney injury (AKI) on day 7 and at the end of treatment. For all analyses, a two-sided P value < 0.05 was considered to be statistically significant. The Statistical Package for the Social Sciences (SPSS, version 15.0) was used for statistical analysis.

[3] = system: infections caused by MDR-GNB; experiment: Clinical response to CMS treatment; assay type: in vivo, patients
Protocol: as §1
Data on demographic characteristics including age, gender, body weight, size, and body mass index were collected. Data on the indication for CMS, the administration schedule, the daily CMS dose recorded as millions of IU, the total cumulative CMS dose (millions of IU), and the duration of treatment were collected. Other data recorded included the presence of CKD at baseline, the Charlson score, the severity of disease at the time of the first CMS dose stratified according to the Acute Physiology and the Chronic Health Evaluation (APACHE) II [16]. The concomitant use of aminoglycosides, vancomycin, angiotensin II receptor blockers, angiotensin-converting enzyme inhibitors, loop diuretics, intravenous dye, amphotericin B, non-steroidal anti-inflammatory drugs (NSAIDs), the need for vasopressor drugs, and discontinuation of CMS treatment because of AKI were also recorded. The patient’s clinical status at the beginning of CMS treatment was defined as infection, severe sepsis and shock, according to the standard definition. Clinical response was defined as the resolution of signs, symptoms, and laboratory parameters that defined infection for each patient. The 30-day all-cause mortality was also recorded.

[4] = system: patients receiving intravenous colistin methanesulfonate sodium (CMS); experiment: 30-day all-cause mortality; assay type: in vivo; settings: 102 patients on iv CMS
Text: Data on demographic characteristics including age, gender, body weight, size, and body mass index were collected. Data on the indication for CMS, the administration schedule, the daily CMS dose recorded as millions of IU, the total cumulative CMS dose (millions of IU), and the duration of treatment were collected. Other data recorded included the presence of CKD at baseline, the Charlson score, the severity of disease at the time of the first CMS dose stratified according to the Acute Physiology and the Chronic Health Evaluation (APACHE) II [16]. The concomitant use of aminoglycosides, vancomycin, angiotensin II receptor blockers, angiotensin-converting enzyme inhibitors, loop diuretics, intravenous dye, amphotericin B, non-steroidal anti-inflammatory drugs (NSAIDs), the need for vasopressor drugs, and discontinuation of CMS treatment because of AKI were also recorded. The patient’s clinical status at the beginning of CMS treatment was defined as infection, severe sepsis and shock, according to the standard definition. Clinical response was defined as the resolution of signs, symptoms, and laboratory parameters that defined infection for each patient. The 30-day all-cause mortality was also recorded. […]

[5] = % of the 26 patients with nephrotoxicity at day 7
[6] = End of treatment, multivariate logistic regression

## CC[C@H](C)CCCCC(=O)N[C@@H](CCN)C(=O)N[C@H](C(=O)N[C@@H](CCN)C(=O)N[C@H]1CCNC(=O)[C@H]([C@@H](C)O)NC(=O)[C@H](CCN)NC(=O)[C@H](CCN)NC(=O)[C@H](CC(C)C)NC(=O)[C@@H](CC(C)C)NC(=O)[C@H](CCN)NC1=O)[C@@H](C)O [colistin] (X1-[Dab]T[Dab][Dab][Dab][dL]L[Dab][Dab]T; lactam 4-C)
[1]; 1 million IU/8 h, CMS 1 million IU/8 h (n = 28), steady state, 30 min after infusion, median (interquartile range), read-out: Cmax
  Cmax: 0.65 µg/mL
[1]; 2 million IU/8 h, CMS 2 million IU/8 h (n = 42), steady state, 30 min after infusion, median (interquartile range), read-out: Cmax
  Cmax: 1.13 µg/mL
[1]; 3 million IU/8 h, CMS 3 million IU/8 h (n = 16), steady state, 30 min after infusion, median (interquartile range), read-out: Cmax
  Cmax: 1.84 µg/mL
[1]; CMS other doses (n = 16), steady state, 30 min after infusion, median (interquartile range), read-out: Cmax
  Cmax: 1.5 µg/mL
[1]; first value of pair, taken as patients without acute renal failure at baseline, read-out: Peak colistin plasma level
  Cmax: 1 µg/mL
[1]; second value of pair, taken as patients with acute renal failure at baseline, read-out: Peak colistin plasma level
  Cmax: 1.82 µg/mL
[1]; 1 million IU/8 h, CMS 1 million IU/8 h (n = 28), steady state trough, median (interquartile range), read-out: Cmin
  level at 72 h: 0.71 µg/mL
[1]; 2 million IU/8 h, CMS 2 million IU/8 h (n = 42), steady state trough, median (interquartile range), read-out: Cmin
  level at 72 h: 1.14 µg/mL
[1]; 3 million IU/8 h, CMS 3 million IU/8 h (n = 16), steady state trough, median (interquartile range), read-out: Cmin
  level at 72 h: 1.84 µg/mL
[1]; CMS other doses (n = 16), steady state trough, median (interquartile range), read-out: Cmin
  level at 72 h: 1.5 µg/mL
[1]; first value of pair, taken as patients without acute renal failure at baseline, read-out: Trough colistin plasma level
  level at 72 h: 0.86 µg/mL
[1]; second value of pair, taken as patients with acute renal failure at baseline, read-out: Trough colistin plasma level
  level at 72 h: 1.79 µg/mL

## colistin methanesulfonate sodium [CMS]
[2]; 53 patients with AKI
  Patients who developed AKI needing renal replacement therapy: None
[2]; [5]
  Nephrotoxicity at day 7: F (Failure): 2 (7.6) n (%)
  Nephrotoxicity at day 7: I (Injury): 8 (30.7) n (%)
  Nephrotoxicity at day 7: R (Risk): 16 (61.5) n (%)
[2]; % of the 50 patients with nephrotoxicity at EOT
  Nephrotoxicity at the end of treatment: I (Injury): 23(46) n (%)
[2]; CMS 1 million IU/8 h (n = 28)
  AKI at EOT: 14 (50) n (%)
  AKI at day 7: 5 (17.9) n (%)
[2]; CMS 2 million IU/8 h (n = 42)
  AKI at EOT: 21 (50) n (%)
  AKI at day 7: 11 (26.2) n (%)
[2]; CMS 3 million IU/8 h (n = 16)
  AKI at EOT: 9 (56.3) n (%)
  AKI at day 7: 7 (43.8) n (%)
[2]; CMS other doses (n = 16)
  AKI at EOT: 6 (37.5) n (%)
  AKI at day 7: 3 (18.8) n (%)
[2]; Day 7 (n = 102)
  N° (%) of patients fulfilling criterion: ESKD (E): 0 (0) N° (%)
  N° (%) of patients fulfilling criterion: Failure (F): 2 (2) N° (%)
  N° (%) of patients fulfilling criterion: Injury (I): 8 (7.8) N° (%)
  N° (%) of patients fulfilling criterion: Loss (L): 0 (0) N° (%)
  N° (%) of patients fulfilling criterion: No injury: 76 (74.5) N° (%)
  N° (%) of patients fulfilling criterion: Risk (R): 16 (15.7) N° (%)
[2]; Day 7, multivariate logistic regression
  Odds ratio (95% CI) of CMS cumulative dose at day 7 for nephrotoxicity: 0.99 (0.94-1.04)
[2]; EOT (n = 102)
  N° (%) of patients fulfilling criterion: ESKD (E): 0 (0) N° (%)
  N° (%) of patients fulfilling criterion: Failure (F): 13 (12.7) N° (%)
  N° (%) of patients fulfilling criterion: Injury (I): 23 (22.5) N° (%)
  N° (%) of patients fulfilling criterion: Loss (L): 0 (0) N° (%)
  N° (%) of patients fulfilling criterion: No injury: 52 (51) N° (%)
  N° (%) of patients fulfilling criterion: Risk (R): 14 (13.7) N° (%)
[2]; [6]
  Odds ratio (95% CI) of CMS cumulative dose for nephrotoxicity: 0.99 (0.98-1)
  Odds ratio (95% CI) of CMS duration treatment for nephrotoxicity: 1.03 (0.98-1.08)
[2]; n=102, RIFLE criteria
  Patients with nephrotoxicity at day 7: 26 (25.5) n (%)
  Patients with nephrotoxicity at the end of treatment: 50 (49) n (%)
[3]; CMS 1 million IU/8 h (n = 28)
  Clinical response: 25 (89.3) n (%)
[3]; CMS 2 million IU/8 h (n = 42)
  Clinical response: 32 (76.2) n (%)
[3]; CMS 3 million IU/8 h (n = 16)
  Clinical response: 11 (68.8) n (%)
[3]; CMS other doses (n = 16)
  Clinical response: 11 (68.8) n (%)
[3]; all included patients n=102
  Clinical response: 79 (77.5) n (%)
[4]
  30-day all-cause mortality rate: 32.4%
